The values that follow are results of earlier work, collected in patent US20250064843A1, “METHOD AND MEDICAMENT FOR TREATING AMYOTROPHIC LATERAL SCLEROSIS” (4B TECHNOLOGIES (BEIJING) CO., LIMITED, priority 2021, published 2025).

The structures appear in SMILES notation. Values after ≈ are worked out from the molar mass of the structure shown.

One data set deals with IGF1R (Homo sapiens, UniProt P08069). The following applies: for IGF1R.
The test system of the next data set is proliferation. The following applies: for proliferation.
Another data set relates to mouse leukemia cells. The following applies: on mouse leukemia cells.
For the next data set, the system named is ALS-mimic mouse model. Conditions: NR3C1 antagonist.
In a further data set the target is T1, KCNC1 (Homo sapiens, UniProt P48547).
T1 sequence (P48547 1-511): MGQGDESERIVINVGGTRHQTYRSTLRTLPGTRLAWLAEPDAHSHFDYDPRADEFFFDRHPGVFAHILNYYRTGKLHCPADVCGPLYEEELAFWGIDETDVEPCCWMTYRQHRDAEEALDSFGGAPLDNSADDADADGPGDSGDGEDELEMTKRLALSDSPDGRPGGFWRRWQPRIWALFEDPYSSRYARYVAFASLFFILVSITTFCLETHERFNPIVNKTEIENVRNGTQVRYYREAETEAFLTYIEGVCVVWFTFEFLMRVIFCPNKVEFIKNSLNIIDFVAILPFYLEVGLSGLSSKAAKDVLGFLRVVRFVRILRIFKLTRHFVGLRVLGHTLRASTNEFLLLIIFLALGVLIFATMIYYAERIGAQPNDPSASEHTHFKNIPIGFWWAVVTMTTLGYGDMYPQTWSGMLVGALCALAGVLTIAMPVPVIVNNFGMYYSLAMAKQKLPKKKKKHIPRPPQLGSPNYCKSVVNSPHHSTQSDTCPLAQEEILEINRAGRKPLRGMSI
The following applies: for KCNC1.

The test system of another data set is leukemia cells. The following applies: on leukemia cells at 24 h.
A further data set deals with human neutrophils. The following applies: in human neutrophils.
The target of the next data set is T2, NR3C1 (Homo sapiens, UniProt P04150).
T2 sequence (P04150 1-777): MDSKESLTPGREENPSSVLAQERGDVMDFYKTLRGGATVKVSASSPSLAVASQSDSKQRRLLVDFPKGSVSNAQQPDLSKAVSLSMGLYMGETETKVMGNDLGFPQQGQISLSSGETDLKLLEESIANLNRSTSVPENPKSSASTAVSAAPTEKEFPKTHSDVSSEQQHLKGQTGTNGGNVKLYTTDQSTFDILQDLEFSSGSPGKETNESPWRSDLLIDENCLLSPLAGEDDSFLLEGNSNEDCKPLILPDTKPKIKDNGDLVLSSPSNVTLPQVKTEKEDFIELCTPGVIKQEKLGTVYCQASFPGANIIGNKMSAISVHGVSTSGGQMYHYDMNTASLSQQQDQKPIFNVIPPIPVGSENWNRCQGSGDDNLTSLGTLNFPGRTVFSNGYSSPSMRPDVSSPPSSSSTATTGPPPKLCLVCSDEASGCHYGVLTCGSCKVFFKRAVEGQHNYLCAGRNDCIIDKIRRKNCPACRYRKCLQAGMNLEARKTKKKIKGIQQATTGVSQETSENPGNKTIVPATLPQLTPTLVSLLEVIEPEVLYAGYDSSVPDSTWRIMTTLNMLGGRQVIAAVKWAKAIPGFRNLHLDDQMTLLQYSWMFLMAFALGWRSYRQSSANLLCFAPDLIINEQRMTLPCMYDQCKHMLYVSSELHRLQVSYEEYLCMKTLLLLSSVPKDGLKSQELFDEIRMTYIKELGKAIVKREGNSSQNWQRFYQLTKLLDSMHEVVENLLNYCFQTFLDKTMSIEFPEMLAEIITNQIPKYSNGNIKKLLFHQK
The following applies: for NR3C1; retrieved from Selleckchem.com.

The subject of another data set is ALS patients. The following applies: NR3C1 agonists.

IGF1R, sequence (P08069 31-1367): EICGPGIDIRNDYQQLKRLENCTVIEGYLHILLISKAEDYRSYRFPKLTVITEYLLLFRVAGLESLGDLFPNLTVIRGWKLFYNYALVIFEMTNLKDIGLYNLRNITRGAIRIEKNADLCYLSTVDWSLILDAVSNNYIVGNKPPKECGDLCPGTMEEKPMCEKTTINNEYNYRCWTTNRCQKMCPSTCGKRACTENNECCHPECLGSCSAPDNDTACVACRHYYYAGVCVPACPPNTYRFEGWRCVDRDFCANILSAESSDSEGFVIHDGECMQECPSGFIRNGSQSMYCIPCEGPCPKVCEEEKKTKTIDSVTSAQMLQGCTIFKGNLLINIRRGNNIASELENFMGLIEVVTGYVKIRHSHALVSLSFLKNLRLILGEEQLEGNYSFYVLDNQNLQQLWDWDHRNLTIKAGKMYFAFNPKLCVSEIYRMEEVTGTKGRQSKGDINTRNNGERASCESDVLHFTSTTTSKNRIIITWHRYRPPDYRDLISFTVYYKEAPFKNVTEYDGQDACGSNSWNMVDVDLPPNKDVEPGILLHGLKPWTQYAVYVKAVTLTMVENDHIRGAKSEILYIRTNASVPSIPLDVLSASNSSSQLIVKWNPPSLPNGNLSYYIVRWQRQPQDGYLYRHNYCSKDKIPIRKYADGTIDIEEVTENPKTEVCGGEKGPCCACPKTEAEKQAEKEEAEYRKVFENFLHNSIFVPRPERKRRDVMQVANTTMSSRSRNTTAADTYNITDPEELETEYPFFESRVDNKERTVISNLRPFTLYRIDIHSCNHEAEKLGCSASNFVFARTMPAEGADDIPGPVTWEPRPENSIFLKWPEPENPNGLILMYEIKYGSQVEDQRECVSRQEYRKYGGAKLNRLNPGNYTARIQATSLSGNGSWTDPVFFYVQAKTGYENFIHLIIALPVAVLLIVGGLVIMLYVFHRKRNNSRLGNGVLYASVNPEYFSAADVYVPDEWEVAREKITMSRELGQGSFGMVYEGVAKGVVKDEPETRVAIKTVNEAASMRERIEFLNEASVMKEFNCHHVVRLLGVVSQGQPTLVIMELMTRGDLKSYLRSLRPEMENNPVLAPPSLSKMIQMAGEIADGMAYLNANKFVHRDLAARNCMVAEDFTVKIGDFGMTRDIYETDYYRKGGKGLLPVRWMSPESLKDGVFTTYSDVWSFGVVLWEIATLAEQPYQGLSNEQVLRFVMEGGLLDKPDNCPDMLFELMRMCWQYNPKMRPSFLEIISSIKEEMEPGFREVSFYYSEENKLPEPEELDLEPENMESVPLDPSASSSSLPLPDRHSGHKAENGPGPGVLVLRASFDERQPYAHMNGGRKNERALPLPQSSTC

Take `COc1cc([C@@H]2c3cc4c(cc3[C@H](O)[C@H]3COC(=O)[C@@H]23)OCO4)cc(OC)c1OC` [AXL-1717, picropodophyllin]: the IC50 on IGF1R is 1 nM.

Regarding `COc1cc(C)c(/C=C/C(C)=C/C=C/C(C)=C/C(=O)O)c(C)c1C` [Acitretin, (2E,4E,6E,8E)-9-(4-methoxy-2,3,6-trimethylphenyl)-3,7-dimethylnona-2,4,6,8-tetraenoic acid], in the data set with proliferation, the IC50 is 6600 nM.

Take `Nc1ncn([C@@H]2O[C@H](CO)[C@@H](O)[C@H]2O)c(=O)n1` [Azacitidine, 5-azacytidine]: the IC50 in the data set with mouse leukemia cells is 0.019 µg/mL (≈ 0.0778 µM).

With `O=C(c1ccccn1)[C@]12Cc3cnn(-c4ccc(F)cc4)c3C=C1CCN(S(=O)(=O)c1ccc(C(F)(F)F)cc1)C2` [CORT113176], the “effect on pro-inflammatory factors” value with ALS-mimic mouse model is “reducing the expression and origin of pro-inflammatory factors”.

`Nc1ccncc1` [Dalfampridine, 4-aminopyridine]: the IC50 on KCNC1 is 29000 nM.

With `Nc1ncn([C@H]2C[C@H](O)[C@@H](CO)O2)c(=O)n1` [Decitabine, 5-aza-2′-deoxycytidine], in the data set on leukemia cells, the IC50 was 100 nM.

Consider `CC(CCc1ccccc1)NCC(O)c1ccc(O)c(C(N)=O)c1` (stereo not drawn) [Labetalol], for which the IC50 in the data set with human neutrophils was 13.2 mg/L in.

As to `CC#C[C@]1(O)CCC2C3CCC4=CC(=O)CCC4=C3[C@@H](c3ccc4c(c3)OCO4)C[C@@]21C` (stereo partly drawn) [ORG-34517], the IC50 at NR3C1 is 17.9 nM.

Turning to `C[C@]12C=CC(=O)C=C1CC[C@@H]1[C@@H]2C(=O)C[C@@]2(C)[C@H]1CC[C@]2(O)C(=O)CO` [prednisone], the “response to immunosuppression therapy” value in the data set with ALS patients was “none of the patients reached the pre-defined responder criteria”.
